From patent US8828987B2, “Pyridine amide derivatives as EP4 receptor antagonists” (Rottapharm Biotech S.R.L., priority 2010, dated 2014) come the findings set out here.

As a reminder, the IC50 is the concentration that inhibits the measured activity by half.

Test [1] addresses T1, human EP4 receptor (Homo sapiens, UniProt P35408).
T1 construct: expressed in transfected cells; membrane fraction used
Briefly: cAMP assay (AlphaScreen) on human EP4 membrane of transfected cells, antagonism of PGE2. In kind it is biochemical. To be noted: HEK293 hEP4 cell membrane stimulated with PGE2 3 nM; read-out: functional IC50. The source says: (§1) Stable Expression of Human EP4 Receptors in the Human Embryonic Kidney (HEK293) Cell Line
(§2) The cDNA clone of human EP4 receptor (NM_000958.2) was obtained from Invitrogen™: Ultimate™ ORF Clone Collection—Clone ID IOH46525. The coding sequence was subcloned in expression vector pcDNA™6.2/V5-DEST by Gateway technology (Invitrogen™).
(§3) Human embryonic kidney cells (HEK-293) were stably transfected with expression vector for human EP4 receptor in according to the method described in FuGENE®6 Transfection Reagent's manual (Roche Applied Science®).
(§4) Preparation of Membrane Fraction:
(§5) The EP4 transfected cells were grown in Dulbecco's modified Eagle's medium containing 10% fetal bovine serum and 10 μg/ml Blasticidin S HCl (selection medium) at 37° C. in a humidified atmosphere of 5% CO2 in air.
(§6) For the membrane preparation, cells in flask were harvested by hypotonical/mechanical lysis with chilled (4° C.) TE buffer (5 mM TRIS, 5 mM etylenediamine tetra-acetic acid (EDTA), pH 7.4).
(§7) Cells were detached and lysed with 10 ml of hypotonic lysis buffer and by scraping. The cell lysate was vortexed for 30 sec and centrifuged at 40000×g at 4° C. for 22 min.
b) cAMP Assay on Human EP4 Membrane of Transfected Cells.
The assay is based on the competition between endogenous cAMP and exogenously added biotinylated cAMP. The capture of cAMP is achieved by using a specific antibody conjugated to […] beads.
Cell membranes prepared as described above, were resuspended in 1 ml stimulation buffer (HBSS 1×+BSA 0.1%+IBMX 0.5 mM+HEPES 5 mM+MgCl2 10 mM+GTP 1 nM+GDP 10 μM+ATP 100 μM−pH 7.4). Cell membranes were dispensed into white 384-well microplates at final concentration of 1 μg/well and used for the determination of cAMP with the alphascreen cAMP functional assay (EnVision—PerkinElmer). Cell membrane/anti-cAMP Acceptor beads mix (5 μl) and a mixture of analysed compounds (dissolved in 100% DMSO to a final maximal concentration of 0.01% DMSO)/PGE2 (5 μl) were incubated at room temperature (22-23° C.) for 30 min in the dark. The Biotinylated-cAMP and donor beads (15 μl) were dispensed into each well to start the competition reaction. After 1 h incubation RT (22-23° C.) in the dark the plate was read using EnVision platform to determine the cAMP level (excitation: 680 nm; emission: 520,620 nm).
cAMP standard curve (concentration range from 1×10-6 to 1×10-11 M in. log intervals) with a negative control (no cAMP) a positive control:forskolin 10 μM
Antagonism studies were performed stimulating HEK293 cell membrane with PGE2 3 nM. The AlphaScreen signal is plotted as a function of log concentration of cAMP and functional IC50 is determined. IC50 value is calculated by linear regression.
Some compounds were tested according to method of example 83b.

For test [2], the target named is T1, human EP4 receptor. In words: [3H]-Prostaglandin E2 membrane binding assay (human EP4/HEK293 transfectant membranes). To be noted: [3H]-PGE2 1 nM, hEP4/HEK293 membranes; Ki by Cheng-Prusoff; read-out: Binding pKi (converted).
Description: as §1, §2, §3, §4, §5, §6, §7
a) Membrane Binding Assay[3H]-Prostaglandin E2
The membrane pellet was resuspended in the same buffer (5 mM TRIS, 5 mM ethylenediamine tetra-acetic acid (EDTA), pH 7.4), and protein concentration was determined by Bradford method (Bio-Bad® assay).
This membrane preparation was stored at −80° C. freezer until use for binding assay.
([^3H]-PGE2) membranes binding assays toward hEP4 receptors (human EP4/HEK293 transfectant, see above) and hEP2 receptors (human EP2/HEK293 transfectant, purchased from PerkinElmer Inc) were performed in 10 mM MES-KOH buffer pH6, containing 10 mM MgCl2 and 1 mM CaCl2 for EP4 binding assay or 50 mM Tris-Cl, BSA 0.5% for EP2 binding assay (according to supplier indication).
Ten microgram of protein from membrane fractions were incubated in a total volume of 0.1 ml (EP4) or 0.2 ml (EP2) with 1 nM (EP4) or 3 nM (EP2) [^3H]-PGE2 (PerkinElmer Inc, 171 Ci/mmol). In both assays to determine the total binding or non specific binding, 1% DMSO or 1 μM prostaglandin E2 (EP4) or 100 μM (EP2) were added to reaction mixtures, respectively. Incubation was conducted in a polypropylene 96 multiwell for 90 min (EP4) or 60 min (EP2) at room temperature prior to separation of the bound and free radioligand by vacuum manifold rapid filtration on glass fiber filters (Unifilter GFB96, PerkinElmer Inc) pre-soaked in 0.3% polyethyleneimine. Filters were washed with ice cold buffer pH 7.4 (50 mM HEPES, NaCl 500 mM, BSA 0.1% for EP4 binding assay or 50 mM Tris-Cl for EP2 binding assays) and the residual [^3H]-PGE2 binding determined by solid scintillation counter (TopCount, PerkinElmer Inc).
The affinity (Ki) of each compound was calculated according to the Cheng-Prousoff equation: Ki=IC50/(1+([C]/Kd)). Results were expressed as pKi (−log 10 Ki (M)
Compounds of example 1 to 82 were tested according to method of example 83a in a final concentration range from 1 nM to 1 μM.

T1 sequence (P35408 whole entry): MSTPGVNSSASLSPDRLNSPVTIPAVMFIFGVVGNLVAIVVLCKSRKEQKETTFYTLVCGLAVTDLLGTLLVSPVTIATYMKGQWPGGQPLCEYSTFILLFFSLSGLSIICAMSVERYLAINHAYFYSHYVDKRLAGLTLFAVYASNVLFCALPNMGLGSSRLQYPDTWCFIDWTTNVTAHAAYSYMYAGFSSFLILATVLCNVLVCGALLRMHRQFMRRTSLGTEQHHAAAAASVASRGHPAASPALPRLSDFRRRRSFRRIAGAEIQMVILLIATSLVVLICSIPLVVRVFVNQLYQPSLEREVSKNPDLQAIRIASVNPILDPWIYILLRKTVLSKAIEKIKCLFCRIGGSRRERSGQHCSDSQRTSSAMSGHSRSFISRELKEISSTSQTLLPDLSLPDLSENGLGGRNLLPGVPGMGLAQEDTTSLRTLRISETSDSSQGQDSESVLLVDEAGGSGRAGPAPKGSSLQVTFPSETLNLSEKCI

Consider `Cc1cc(F)ccc1NC1CN(c2ncc(F)cc2C(=O)NC2(c3ccc(C(=O)O)cc3)CC2)C1` [E 56, 4-(1-(5-fluoro-2-(3-((4-fluoro-2-methylphenyl)amino)azetidin-1-yl)nicotinamido)cyclopropyl)benzoic acid], for which the 50% inhibitory concentration (IC50) on human EP4 receptor [1] was found to be 46 nM. Besides, on human EP4 receptor [2], the Ki is 10 nM.

In the case of `O=C(O)c1ccc(C2(NC(=O)c3cc(Cl)cnc3N3CCC(Oc4cccc(F)c4)C3)CC2)cc1` (single isomer, unassigned) [E 71, 4-(1-(5-chloro-2-(3-(3-fluorophenoxy)pyrrolidin-1-yl)nicotinamido)cyclopropyl)benzoic acid], at human EP4 receptor [1], the IC50 was 110 nM. Moreover, the Ki on human EP4 receptor [2] is 39.8 nM.

As to `O=C(O)c1ccc(C2(NC(=O)c3cc(Cl)cnc3N3CC(Nc4cccc(C(F)(F)F)c4)C3)CC2)cc1` [E 31, 4-(1-(5-chloro-2-(3-((3-(trifluoromethyl)phenyl)amino)azetidin-1-yl)nicotinamido)cyclopropyl)benzoic acid], at human EP4 receptor [1], the IC50 came out at 47 nM. For the same compound, the Ki at human EP4 receptor [2] was 7.94 nM.

As for `Cc1cc(C(F)(F)F)ccc1NC1CN(c2ncc(Cl)cc2C(=O)NC2(c3ccc(C(=O)O)cc3)CC2)C1` [E 36, 4-(1-(5-chloro-2-(3-((2-methyl-4-(trifluoromethyl)phenyl)amino)azetidin-1-yl)nicotinamido)cyclopropyl)benzoic acid], the half-inhibitory concentration (IC50) on human EP4 receptor [1] stood at 30 nM. Also, the Ki at human EP4 receptor [2] is 3.98 nM.

For `O=C(O)c1ccc(C2(NC(=O)c3cc(Cl)cnc3N3CCC(Oc4cccc(F)c4)C3)CC2)cc1` (single isomer, unassigned) [E 69, 4-(1-(5-chloro-2-(3-(3-fluorophenoxy)pyrrolidin-1-yl)nicotinamido)cyclopropyl)benzoic acid], the IC50 on human EP4 receptor [1] was 308 nM. In addition, the Ki at human EP4 receptor [2] is 50.1 nM.

With `O=C(O)c1ccc(C2(NC(=O)c3cc(F)cnc3N3CC(Oc4cccc(F)c4)C3)CC2)cc1` [E 53, 4-(1-(5-fluoro-2-(3-(3-fluorophenoxy)azetidin-1-yl)nicotinamido)cyclopropyl)benzoic acid], the IC50 on human EP4 receptor [1] amounted to 80 nM. The Ki at human EP4 receptor [2] is 31.6 nM.

Regarding `O=C(O)c1ccc(C2(NC(=O)c3cc(F)cnc3N3CC(Oc4cccc(Cl)c4)C3)CC2)cc1` [E 54, 4-(1-(5-fluoro-2-(3-(3-chlorophenoxy)azetidin-1-yl)nicotinamido)cyclopropyl)benzoic acid], on human EP4 receptor [1], the IC50 worked out at 75 nM. The Ki on human EP4 receptor [2] was 25.1 nM.

`O=C(O)c1ccc(C2(NC(=O)c3cc(Cl)cnc3N3CC(Oc4cccc(N5CCNCC5)c4)C3)CC2)cc1` [E 21, 4-(1-(5-chloro-2-(3-(3-(piperazin-1-yl)phenoxy)azetidin-1-yl)nicotinamido)cyclopropyl)benzoic acid]: the IC50 at human EP4 receptor [1] stood at 191 nM. Moreover, the Ki at human EP4 receptor [2] is 63.1 nM.

As for `O=C(O)c1ccc(C2(NC(=O)c3cc(Cl)cnc3N3CC(Oc4ccc(F)c(C(F)(F)F)c4)C3)CC2)cc1` [E 17, 4-(1-(5-chloro-2-(3-(4-fluoro-3-(trifluoromethyl)phenoxy)azetidin-1-yl)nicotinamido)cyclopropyl)benzoic acid], on human EP4 receptor [1], the IC50 turned out to be 82 nM. For the same compound, on human EP4 receptor [2], the Ki was 20 nM.

For `O=C(O)c1ccc(C2(NC(=O)c3cc(Cl)cnc3N3CCC(Oc4cccc(C(F)(F)F)c4)C3)CC2)cc1` (single isomer, unassigned) [E 65, 4-(1-(5-chloro-2-(3-(3-(trifluoromethyl)phenoxy)pyrrolidin-1-yl)nicotinamido)cyclopropyl)benzoic acid], the IC50 at human EP4 receptor [1] was determined as 65 nM. Moreover, the Ki on human EP4 receptor [2] is 39.8 nM.

Consider `O=C(O)c1ccc(C2(NC(=O)c3cc(C(F)(F)F)cnc3N3CC(Oc4cccc(C(F)(F)F)n4)C3)CC2)cc1` [E 47, 4-(1-(5-(trifluoromethyl)-2-(3-((6-(trifluoromethyl)pyridin-2-yl)oxy)azetidin-1-yl)nicotinamido)cyclopropyl)benzoic acid], for which, on human EP4 receptor [1], the IC50 stood at 228 nM. The Ki at human EP4 receptor [2] was 63.1 nM.

On to `O=C(O)c1ccc(CNC(=O)c2cc(Cl)cnc2N2CC(Oc3cccc(F)c3)C2)cc1` [E 22, 4-((5-chloro-2-(3-(3-fluorophenoxy)azetidin-1-yl)nicotinamido)methyl)benzoic acid], for which, at human EP4 receptor [1], the IC50 turned out to be 119 nM. Also, at human EP4 receptor [2], the Ki is 31.6 nM.

Take `O=C(O)c1ccc(C2(NC(=O)c3cc(C(F)(F)F)cnc3N3CC(Oc4ccc(F)c(C(F)(F)F)c4)C3)CC2)cc1` [E 42, 4-(1-(2-(3-(4-fluoro-3-(trifluoromethyl)phenoxy)azetidin-1-yl)-5-(trifluoromethyl)nicotinamido)cyclopropyl)benzoic acid]: on human EP4 receptor [1], the IC50 came out at 35 nM. The Ki on human EP4 receptor [2] was 3.16 nM.

Regarding `O=C(O)c1ccc(C2(NC(=O)c3cc(Cl)cnc3N3CC(Oc4ccc(F)cc4)C3)CC2)cc1` [E 15, 4-(1-(5-chloro-2-(3-(4-fluorophenoxy)azetidin-1-yl)nicotinamido)cyclopropyl)benzoic acid], on human EP4 receptor [1], the IC50 was found to be 70 nM. The Ki at human EP4 receptor [2] is 12.6 nM.

Take `O=C(O)c1ccc(C2(NC(=O)c3cc(Cl)cnc3N3CCCC3c3ccccc3)CC2)cc1` (single isomer, unassigned) [E 3, 4-(1-(5-chloro-2-(2-phenylpyrrolidin-1-yl)nicotinamido)cyclopropyl)benzoic acid]: the IC50 on human EP4 receptor [1] amounted to 133 nM. For the same compound, the Ki at human EP4 receptor [2] was 31.6 nM.

In the case of `O=C(O)c1ccc(C2(NC(=O)c3cc(Cl)cnc3N3CCC(COc4cccc(F)c4)C3)CC2)cc1` (centres unmarked) [E 76, 4-(1-(5-chloro-2-(3-((3-fluorophenoxy)methyl)pyrrolidin-1-yl)nicotinamido)cyclopropyl)benzoic acid], the IC50 on human EP4 receptor [1] turned out to be 24 nM. In addition, on human EP4 receptor [2], the Ki was 31.6 nM.

For the compound `O=C(O)c1ccc(C2(NC(=O)c3cc(Cl)cnc3N3CCC(Oc4ccccc4)C3)CC2)cc1` (single isomer, unassigned) [E 60], the half-maximal inhibitory concentration (IC50) at human EP4 receptor [1] amounted to 96.5 nM. In addition, the Ki on human EP4 receptor [2] is 79.4 nM.

On to `O=C(O)c1ccc(C2(NC(=O)c3cc(Cl)cnc3N3CC(Oc4ccc(F)cc4F)C3)CC2)cc1` [E 19, 4-(1-(5-chloro-2-(3-(2,4-difluorophenoxy)azetidin-1-yl)nicotinamido)cyclopropyl)benzoic acid], for which the IC50 on human EP4 receptor [1] came to 87 nM. For the same compound, the Ki on human EP4 receptor [2] was 50.1 nM.

As to `O=C(O)c1ccc(C2(NC(=O)c3cc(Cl)cnc3N3CCCC3c3ccccc3)CC2)cc1` (single isomer, unassigned) [E 1, 4-(1-(5-chloro-2-(2-phenylpyrrolidin-1-yl)nicotinamido)cyclopropyl)benzoic acid], on human EP4 receptor [1], the IC50 is 235 nM. Further, the Ki at human EP4 receptor [2] was 398 nM.
